Measurements from patent US8193220B1 (priority 2009, dated 2012).
Where two headings read alike, the source gives them in different places.

Assays:
[1] = test system: eye muscles (lateral rectus muscle); conditions: bupivacaine injected into eye muscles of strabismus patients; cited from earlier work
[2] = test system: eye muscles (lateral rectus muscle); assay type: in vivo, human
[3] = test system: extensor digitorum longus muscle; conditions: rat hind limb extensor digitorum longus; cited from earlier work

CCCCN1CCCCC1C(=O)Nc1c(C)cccc1C (stereo not drawn) [bupivacaine]
effect on strabismus deviations [1]: correction or improvement of strabismus deviations
period of hypertrophy (growth beyond the original state) after regeneration [1]: 20 to 30 days
period of muscle weakness after injection [1]: 7 to 16 days
change of eye alignment ([2]; bupivacaine alone into lateral rectus): ineffective in changing eye alignment
correction of strabismus ([2]; human, in vivo): successful correction of strabismus
length of regenerated lateral rectus muscle ([2]; human, in vivo): shorter length
length of regenerated lateral rectus muscle ([2]; one case of esotropia, bupivacaine alone, antagonist medial rectus unopposed): longer muscle
myotoxicity and weakness of the injected lateral rectus muscle ([2]; one case of esotropia, bupivacaine alone, first injection): very pronounced
muscle size after injection [3]: enlargement of the muscle beyond its original size
